pIC50: −log10 of the molar value.
How the values were obtained:
[1] = molecular target: Adenosine A1 receptor (Rattus norvegicus, UniProt P25099); settings: read-out: IC50 Mean (footnote: Literature value determined in rat), Ji et al., J Med. Chem. 39, 781-788 (1996); cited from earlier work
[2] = molecular target: T1, Human adenosine A1 receptors (Homo sapiens, UniProt P30542); experiment: biochemical; settings: [3H]-DPCPX 1 nM, 60 min, 27°C
T1 sequence (P30542 1-326): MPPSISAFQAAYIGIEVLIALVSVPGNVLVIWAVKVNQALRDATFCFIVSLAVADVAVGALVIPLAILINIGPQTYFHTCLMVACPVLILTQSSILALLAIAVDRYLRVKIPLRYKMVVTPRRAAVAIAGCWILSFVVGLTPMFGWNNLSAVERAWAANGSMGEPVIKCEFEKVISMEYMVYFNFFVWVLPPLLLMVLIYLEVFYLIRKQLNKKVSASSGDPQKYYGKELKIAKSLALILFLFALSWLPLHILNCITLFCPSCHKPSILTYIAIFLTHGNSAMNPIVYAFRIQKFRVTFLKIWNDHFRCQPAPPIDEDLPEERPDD
Procedure: Binding experiments were performed according to the data sheet provided by the supplier of the receptor (Perkin Elmer) with modifications:
Approximately 2.4-3 µg protein-containing membranes were incubated for 60 min in a total volume of 100 µL at 27°C: assay buffer:
Test compound data are presented as specific radioligand binding to the receptor.
(§1) In case of ill-defined curves or algorithm-generated minima below the defined non-specific binding, the IC50 value was determined by graphical extrapolation.

[3] = molecular target: human adenosine A2A receptors (Homo sapiens, UniProt P29274); experiment: Adenosine A2A receptor radioligand binding assay ([125I]-ZM241385 competition, membranes of HEK293 cells)
human adenosine A2A receptors, sequence (P29274 whole entry): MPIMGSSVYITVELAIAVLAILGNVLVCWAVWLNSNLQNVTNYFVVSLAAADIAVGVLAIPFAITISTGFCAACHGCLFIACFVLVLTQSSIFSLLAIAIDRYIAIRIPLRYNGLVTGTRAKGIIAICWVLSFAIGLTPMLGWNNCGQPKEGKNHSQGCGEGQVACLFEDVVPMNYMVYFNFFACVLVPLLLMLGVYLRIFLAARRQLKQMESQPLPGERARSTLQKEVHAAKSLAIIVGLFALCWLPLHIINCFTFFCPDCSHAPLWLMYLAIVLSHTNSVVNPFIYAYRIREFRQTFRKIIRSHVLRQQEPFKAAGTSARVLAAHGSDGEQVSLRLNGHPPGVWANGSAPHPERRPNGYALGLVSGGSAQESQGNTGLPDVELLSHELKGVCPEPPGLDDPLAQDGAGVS
Procedure: Approximately 0.4-0.9 µg protein-containing membranes were incubated for 60 min in a total volume of 100 µL at 37°C. assay buffer:
Test compound data are presented as specific radioligand binding to the receptor. Specific binding is defined as the difference between the total binding and the non-specific binding determined in the presence of the reference compound as detailed in the previous sections.
as §1

Adenosine A1 receptor, sequence (P25099 whole entry): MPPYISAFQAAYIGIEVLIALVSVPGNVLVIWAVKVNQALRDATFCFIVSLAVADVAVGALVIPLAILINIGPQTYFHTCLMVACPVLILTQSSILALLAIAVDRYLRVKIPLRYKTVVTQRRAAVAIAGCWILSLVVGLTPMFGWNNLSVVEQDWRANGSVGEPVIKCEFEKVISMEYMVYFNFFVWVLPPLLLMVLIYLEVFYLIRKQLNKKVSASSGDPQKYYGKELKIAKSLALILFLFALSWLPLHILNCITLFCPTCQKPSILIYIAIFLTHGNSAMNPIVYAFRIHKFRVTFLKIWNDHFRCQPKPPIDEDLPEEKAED

pIC50 ([2]; IC50 1.M, first measurement): 3.21
pIC50 ([2]; IC50 2.M, second measurement): 3.91
pIC50 ([3]; IC50 1.M, first measurement, [125I]-ZM241385 20000 cpm, 60 min, 37°C): 5.89
pIC50 ([3]; IC50 2.M, second measurement, [125I]-ZM241385 20000 cpm, 60 min, 37°C): 5.68
pIC50 ([3]; IC50 Mean, mean of 1.M and 2.M): 5.77
SMILES: COc1cc2oc(-c3ccc(O)cc3)cc(=O)c2c(O)c1OC [Cirsimaritin]
pIC50 [1]: 5.92
